This is an account of results in patent publication US20150175530A1, “ANTIBACTERIAL AGENTS” (priority 2012, published 2015).

For data set [1], the system named is bacterial isolates (clinical isolates and ATCC quality control strains). The experiment in a line: Minimum Inhibitory Concentrations (MICs) by broth microdilution (CLSI susceptibility testing). The data set is classed as cell-based. The method, then: Bacterial isolates were cultivated from −70° C. frozen stocks by overnight passages at 35° C. in ambient air on Mueller-Hinton agar (Beckton Dickinson, Franklin Lakes, N.J.). Clinical isolates tested were obtained from various geographically diverse hospitals in the US and abroad (Focus Diagnostics, Herndon, Va. and JMI, North Liberty, Iowa). Quality control strains were from the American Type Culture Collection (ATCC; Rockville, Md.).
Minimum Inhibitory Concentrations (MICs) were determined by the broth microdilution method in accordance with the Clinical and Laboratory Standards Institute (CLSI) guidelines. In brief, organism suspensions were adjusted to a 0.5 McFarland standard to yield a final inoculum between 3×10^5 and 7×10^5 colony-forming units (CFU)/mL. Drug dilutions and inocula were made in sterile, cation adjusted Mueller-Hinton Broth (Beckton Dickinson). An inoculum volume of 100 μL was added to wells containing 100 μL of broth with 2-fold serial dilutions of drug. All inoculated microdilution trays were incubated in ambient air at 35° C. for 18-24 h. Following incubation, the lowest concentration of the drug that prevented visible growth (OD600 nm<0.05) was recorded as the MIC. Performance of the assay was monitored by the use of laboratory quality-control strains and levofloxacin, a compound with a defined MIC spectrum, in accordance with CLSI guidelines.
Background: In broth dilution the organism is exposed to a series of concentrations in liquid medium.

The test system of data set [2] is 3 P. aeruginosa strains (APAE001, APAE002, APAE006). The data set can be described thus: Protein binding: fold change in MIC in the presence of 2% HSA and 0.05% AGP, Geomean of 3 strains. Particulars: MIC in the presence of 2% HSA and 0.05% AGP divided by MIC in the absence; Geomean of 3 P. aeruginosa strains (APAE001, APAE002, APAE006). It is filed as cell-based, Pseudomonas aeruginosa. The method, then: The effect of human serum albumin (HSA) and α-1-acid glycoprotein (AGP) from human plasma, which are known to nonspecifically bind to certain antibiotics and thereby reduce their activity (Banéres-Roquet et al. 2009 “Use of a Surface Plasmon Resonance Method to Investigate Antibiotic and Plasma Protein Interactions” Antimicrob. Agents and Chemother. 53(4):1528-1531), was assessed against 3 P. aeruginosa strains (APAE001, APAE002, APAE006). APAE001 is Pseudomonas aeruginosa ATCC27853; APAE002 is a wildtype lab strain of Pseudomonas aeruginosa known as PAM1020 or PA01. APAE006 is a strain of […]/PA01 with efflux deletions: delta mexAB-oprM::CM delta CD-oprJ::Gm delta mexEF-oprN::omega Hg. Lomovskaya, 0 et al. 1999. Use of a Genetic Approach To Evaluate the Consequences of Inhibition of Efflux Pumps in P aeruginosa. Antimicrob. Agents Chemother. 43: 1340-1346.
The standard procedure described in Susceptibility Testing was utilized with one adjustment, specifically 2% HSA and 0.05% AGP were added to the cation adjusted Mueller-Hinton Broth. The MIC for each strain of interest was then assessed in the presence and absence of HSA/AGP. Following MIC determination, the fold change in MIC was determined for each individual strain by dividing the MIC in the presence of HSA/AGP by the MIC in the absence of HSA/AGP. The protein binding Geomean was then calculated using these 3 values.

The mark [3] stands for this setting: APAE1096 is a clinical isolate, broth microdilution, read-out: Minimum Inhibitory Concentrations (MICs) APAE1096.
[4] abbreviates: Pseudomonas aeruginosa, APAE002 is a wildtype lab strain of Pseudomonas aeruginosa known as PAM1020 or PA01, broth microdilution, read-out: Minimum Inhibitory Concentrations (MICs) APAE002.
Where [5] appears, read: Pseudomonas aeruginosa, ATCC27853, APAE001 is Pseudomonas aeruginosa ATCC27853, broth microdilution, read-out: Minimum Inhibitory Concentrations (MICs) APAE001.

Each structure is given as a SMILES string. Values after ≈ are worked out from the molar mass of the structure shown. Where two headings read alike, the source gives them in different places.

Consider `CC(C)(NCCO)[C@H](NC(=O)c1ccc(C#CC#CCCO)cc1)C(=O)NO` [Compound 11, (S)—N-(1-(hydroxyamino)-3-(2-hydroxyethylamino)-3-methyl-1-oxobutan-2-yl)-4-(6-hydroxyhexa-1,3-diynyl)benzamide], for which the MIC in data set [1] (setting [3]) was 1 to 8 µg/mL (≈ 2.58 to 20.6 µM); in data set [1] (setting [4]), under 1 µg/mL; in data set [1] (setting [5]), under 1 µg/mL. Further, the “Protein Binding PB (Geomean of fold change in MIC)” value in data set [2] is reported as 1.5.

As to `Cc1cc(CNC(C)(C)[C@H](NC(=O)c2ccc(C#CC#CCCO)cc2)C(=O)NO)no1` [Compound 12, (S)—N-(1-(hydroxyamino)-3-methyl-3-((5-methylisoxazol-3-yl)methylamino)-1-oxobutan-2-yl)-4-(6-hydroxyhexa-1,3-diynyl)benzamide], the results for the MIC in data set [1] (setting [3]), in data set [1] (setting [4]) and in data set [1] (setting [5]) were 8 to 16 µg/mL (≈ 18.2 to 36.5 µM), 1 to 8 µg/mL (≈ 2.28 to 18.2 µM) and 1 to 8 µg/mL (≈ 2.28 to 18.2 µM), respectively. In addition, the “Protein Binding PB (Geomean of fold change in MIC)” value in data set [2] turned out to be 2.9.

On to `CC(C)(NCc1c[nH]cn1)[C@H](NC(=O)c1ccc(C#CC#CCCO)cc1)C(=O)NO` [Compound 13, (S)—N-(3-((1H-imidazol-4-yl)methylamino)-1-(hydroxyamino)-3-methyl-1-oxobutan-2-yl)-4-(6-hydroxyhexa-1,3-diynyl)benzamide], for which the MIC was 1 to 8 µg/mL (≈ 2.36 to 18.9 µM) in data set [1] (setting [3]), 1 to 8 µg/mL (≈ 2.36 to 18.9 µM) in data set [1] (setting [4]) and under 1 µg/mL in data set [1] (setting [5]). Moreover, in data set [2], the “Protein Binding PB (Geomean of fold change in MIC)” value is recorded as 1.4.

For the molecule `C[C@H](O)C#CC#Cc1ccc(C(=O)N[C@H](C(=O)NO)C(C)(C)N)cc1` [Compound 14, N—((S)-3-amino-1-(hydroxyamino)-3-methyl-1-oxobutan-2-yl)-4-((S)-5-hydroxyhexa-1,3-diynyl)benzamide], the figures for the MIC in data set [1] (setting [3]), in data set [1] (setting [4]) and in data set [1] (setting [5]) were 1 to 8 µg/mL (≈ 2.91 to 23.3 µM), under 1 µg/mL and under 1 µg/mL, respectively. The “Protein Binding PB (Geomean of fold change in MIC)” value in data set [2] came to 3.4.

Take `C[C@@H](O)C#CC#Cc1ccc(C(=O)N[C@H](C(=O)NO)C(C)(C)N)cc1` [Compound 15, N—((S)-3-amino-1-(hydroxyamino)-3-methyl-1-oxobutan-2-yl)-4-((R)-5-hydroxyhexa-1,3-diynyl)benzamide]: the MIC in data set [1] (setting [3]), in data set [1] (setting [4]) and in data set [1] (setting [5]) was under 1 µg/mL throughout. The “Protein Binding PB (Geomean of fold change in MIC)” value in data set [2] amounted to 2.3.

Take `CNC(C)(C)[C@H](NC(=O)c1ccc(C#CC#C[C@H](C)O)cc1)C(=O)NO` [Compound 16, N—((S)-1-(hydroxyamino)-3-methyl-3-(methylamino)-1-oxobutan-2-yl)-4-((S)-5-hydroxyhexa-1,3-diynyl)benzamide]: the MIC in data set [1] (setting [3]) was 1 to 8 µg/mL (≈ 2.8 to 22.4 µM); in data set [1] (setting [4]), under 1 µg/mL; in data set [1] (setting [5]) it was under 1 µg/mL. The “Protein Binding PB (Geomean of fold change in MIC)” value in data set [2] was 3.6.

On to `CC(C)(N)[C@H](NC(=O)c1ccc(C#CC#CC(O)CO)cc1)C(=O)NO` (stereo partly drawn) [Compound 17, N—((S)-3-amino-1-(hydroxyamino)-3-methyl-1-oxobutan-2-yl)-4-(5,6-dihydroxyhexa-1,3-diynyl)benzamide], for which the MIC was 1 to 8 µg/mL (≈ 2.78 to 22.3 µM) in data set [1] (Pseudomonas aeruginosa, ATCC27853, read-out: Minimum Inhibitory Concentrations (MICs) APAE001); 1 to 8 µg/mL (≈ 2.78 to 22.3 µM) in data set [1] (Pseudomonas aeruginosa, read-out: Minimum Inhibitory Concentrations (MICs) APAE002); 8 to 16 µg/mL (≈ 22.3 to 44.5 µM) in data set [1] (read-out: Minimum Inhibitory Concentrations (MICs) APAE1096). The “Protein Binding PB (Geomean of fold change in MIC)” value in data set [2] is listed as 1.5.

Regarding `CC(C)(N)[C@H](NC(=O)c1ccc(C#CC#CC(CO)CO)cc1)C(=O)NO` [Compound 18, (S)—N-(3-amino-1-(hydroxyamino)-3-methyl-1-oxobutan-2-yl)-4-(6-hydroxy-5-(hydroxymethyl)hexa-1,3-diynyl)benzamide], the MIC in data set [1] (setting [3]) lay in the range of 8 to 16 µg/mL (≈ 21.4 to 42.8 µM); in data set [1] (setting [4]) it was 1 to 8 µg/mL (≈ 2.68 to 21.4 µM); in data set [1] (setting [5]) it was 1 to 8 µg/mL (≈ 2.68 to 21.4 µM). In data set [2], the “Protein Binding PB (Geomean of fold change in MIC)” value was 1.6.

Regarding `CC(C)(N)[C@H](NC(=O)c1ccc(C#CC#CC(O)(CO)CCl)cc1)C(=O)NO` (stereo partly drawn) [Compound 19, N—((S)-3-amino-1-(hydroxyamino)-3-methyl-1-oxobutan-2-yl)-4-(6-chloro-5-hydroxy-5-(hydroxymethyl)hexa-1,3-diynyl)benzamide], the MIC in data set [1] (setting [3]) is 1 to 8 µg/mL (≈ 2.45 to 19.6 µM); in data set [1] (setting [4]), 1 to 8 µg/mL (≈ 2.45 to 19.6 µM); in data set [1] (setting [5]), under 1 µg/mL. The “Protein Binding PB (Geomean of fold change in MIC)” value in data set [2] came out at 1.0.

`CC(C)(N)[C@H](NC(=O)c1ccc(C#CC#CCC(O)CO)cc1)C(=O)NO` (stereo partly drawn) [Compound 21, N—((S)-3-amino-1-(hydroxyamino)-3-methyl-1-oxobutan-2-yl)-4-(6,7-dihydroxyhepta-1,3-diynyl)benzamide]: the MIC in data set [1] (setting [3]), in data set [1] (setting [4]) and in data set [1] (setting [5]) was 1 to 8 µg/mL (≈ 2.68 to 21.4 µM) throughout. The “Protein Binding PB (Geomean of fold change in MIC)” value in data set [2] was 1.9.

In the case of `CNC(C)(C)[C@H](NC(=O)c1ccc(C#CC#CCC(O)CO)cc1)C(=O)NO` (stereo partly drawn) [Compound 22, 4-(6,7-dihydroxyhepta-1,3-diynyl)-N—((S)-1-(hydroxyamino)-3-methyl-3-(methylamino)-1-oxobutan-2-yl)benzamide], the results for the MIC in data set [1] (setting [3]), in data set [1] (setting [4]) and in data set [1] (setting [5]) were 1 to 8 µg/mL (≈ 2.58 to 20.6 µM), under 1 µg/mL and under 1 µg/mL, respectively. In addition, the “Protein Binding PB (Geomean of fold change in MIC)” value in data set [2] is given as 1.6.

Consider `CC(C)(N)[C@H](NC(=O)c1ccc(C#CC#C[C@@H]2[C@@H](CO)[C@H]2CO)cc1)C(=O)NO` [Compound 23A, N—((S)-3-amino-1-(hydroxyamino)-3-methyl-1-oxobutan-2-yl)-4-(((1S,2R,3S)-2,3-bis(hydroxymethyl)cyclopropyl)buta-1,3-diynyl)benzamide], for which the values for the MIC in data set [1] (setting [3]), in data set [1] (setting [4]) and in data set [1] (setting [5]) were 8 to 16 µg/mL (≈ 20 to 40.1 µM), 1 to 8 µg/mL (≈ 2.5 to 20 µM) and 1 to 8 µg/mL (≈ 2.5 to 20 µM), respectively. Moreover, the “Protein Binding PB (Geomean of fold change in MIC)” value in data set [2] was 2.3.

As to `CC(C)(N)[C@H](NC(=O)c1ccc(C#CC#C[C@H]2[C@@H](CO)[C@H]2CO)cc1)C(=O)NO` [Compound 23B, N—((S)-3-amino-1-(hydroxyamino)-3-methyl-1-oxobutan-2-yl)-4-(((1R,2R,3S)-2,3-bis(hydroxymethyl)cyclopropyl)buta-1,3-diynyl)benzamide], the MIC in data set [1] (setting [3]) is 8 to 16 µg/mL (≈ 20 to 40.1 µM); in data set [1] (setting [4]), 1 to 8 µg/mL (≈ 2.5 to 20 µM); in data set [1] (setting [5]) it was 1 to 8 µg/mL (≈ 2.5 to 20 µM). In addition, the “Protein Binding PB (Geomean of fold change in MIC)” value in data set [2] is listed as 2.0.

For `CC(C)(N)[C@H](NC(=O)c1ccc(C#CC#C[C@H]2CC2(CO)CO)cc1)C(=O)NO` [Compound 24, N—((S)-3-amino-1-(hydroxyamino)-3-methyl-1-oxobutan-2-yl)-4-(((R)-2,2-bis(hydroxymethyl)cyclopropyl)buta-1,3-diynyl)benzamide], the MIC in data set [1] (setting [3]), in data set [1] (setting [4]) and in data set [1] (setting [5]) was 1 to 8 µg/mL (≈ 2.5 to 20 µM) in each case. Also, in data set [2], the “Protein Binding PB (Geomean of fold change in MIC)” value was 2.5.

`CC(C)(N)[C@H](NC(=O)c1ccc(C#CC#CC(O)C2CC2CO)cc1)C(=O)NO` (stereo partly drawn) [Compound 26, N—((S)-3-amino-1-(hydroxyamino)-3-methyl-1-oxobutan-2-yl)-4-(5-hydroxy-5-(2-(hydroxymethyl)cyclopropyl)penta-1,3-diynyl)benzamide]: the figures for the MIC in data set [1] (setting [3]), in data set [1] (setting [4]) and in data set [1] (setting [5]) were 1 to 8 µg/mL (≈ 2.5 to 20 µM), under 1 µg/mL and under 1 µg/mL, respectively. In addition, the “Protein Binding PB (Geomean of fold change in MIC)” value in data set [2] turned out to be 6.4.

In the case of `CC(C)(N)[C@H](NC(=O)c1ccc(C#CC#C[C@]2(O)C[C@@H](CO)C2)cc1)C(=O)NO` [Compound 27, N—((S)-3-amino-1-(hydroxyamino)-3-methyl-1-oxobutan-2-yl)-4-(((1S,3R)-1-hydroxy-3-(hydroxymethyl)cyclobutyl)buta-1,3-diynyl)benzamide], the figures for the MIC in data set [1] (setting [3]), in data set [1] (setting [4]) and in data set [1] (setting [5]) were 1 to 8 µg/mL (≈ 2.5 to 20 µM), under 1 µg/mL and under 1 µg/mL, respectively. In addition, the “Protein Binding PB (Geomean of fold change in MIC)” value in data set [2] came to 1.8.
